Experimental data: PubChem BioAssay AID330 (DTP/NCI, 2004)
“And” between values parts separate entries of the source, which are not always exact repeats. Equal entries are not always repeated. Inconclusive results and toxic doses are left out.

Tested on: P388 leukemia ip, CD2F1 mice, survival T/C
Experiment: NCI In Vivo Anticancer Drug Screen. Data for tumor model P388 Leukemia (intraperitoneal) in CD2F1 (CDF1) mice
Details: endpoint: median survival time, higher = longer survival
Outline: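 Mice carrying the transplanted tumor received test compound or vehicle. Survival was recorded in each group, and the value is the treated-group measurement divided by that of the vehicle-treated control group.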

[1] = dose: 50.0 mg/kg/injection, schedule: Q01DX005 (ip), vehicle: saline with Tween-80
[2] = dose: 100.0 mg/kg/injection, schedule: Q01DX005 (ip), vehicle: saline with Tween-80
[3] = dose: 200.0 mg/kg/injection, schedule: Q01DX005 (ip), vehicle: saline with Tween-80
[4] = dose: 100.0 mg/kg/injection, schedule: Q04DX002 (ip), vehicle: saline with Tween-80
[5] = dose: 50.0 mg/kg/injection, schedule: Q01DX005 (ip), vehicle: Klucel (hydroxypropylcellulose) (HPC)
[6] = dose: 100.0 mg/kg/injection, schedule: Q01DX005 (ip), vehicle: Klucel (hydroxypropylcellulose) (HPC)
[7] = dose: 200.0 mg/kg/injection, schedule: Q01DX005 (ip), vehicle: Klucel (hydroxypropylcellulose) (HPC)
[8] = dose: 100.0 mg/kg/injection, schedule: Q04DX002 (ip), vehicle: saline
[9] = dose: 25.0 mg/kg/injection, schedule: Q01DX005 (ip), vehicle: saline with Tween-80
[10] = dose: 50.0 mg/kg/injection, schedule: Q01DX009 (ip), vehicle: saline with Tween-80
[11] = dose: 100.0 mg/kg/injection, schedule: Q01DX009 (ip), vehicle: saline with Tween-80
[12] = dose: 200.0 mg/kg/injection, schedule: Q01DX009 (ip), vehicle: saline with Tween-80
[13] = dose: 100.0 mg/kg/injection, schedule: Q04DX003 (ip), vehicle: saline with Tween-80
[14] = dose: 200.0 mg/kg/injection, schedule: Q04DX003 (ip), vehicle: saline with Tween-80
[15] = dose: 60.0 mg/kg/injection, schedule: Q01DX005 (ip), vehicle: saline with Tween-80
[16] = dose: 60.0 mg/kg/injection, schedule: Q01DX005 (ip), vehicle: Klucel (hydroxypropylcellulose) (HPC)
[17] = dose: 120.0 mg/kg/injection, schedule: Q01DX005 (ip), vehicle: Klucel (hydroxypropylcellulose) (HPC)
[18] = dose: 120.0 mg/kg/injection, schedule: Q01DX005 (ip), vehicle: saline with Tween-80
[19] = dose: 240.0 mg/kg/injection, schedule: Q01DX005 (ip), vehicle: saline with Tween-80
[20] = dose: 100.0 mg/kg/injection, schedule: Q01DX001 (ip), vehicle: Klucel (hydroxypropylcellulose) (HPC)
[21] = dose: 200.0 mg/kg/injection, schedule: Q01DX001 (ip), vehicle: Klucel (hydroxypropylcellulose) (HPC)
[22] = dose: 400.0 mg/kg/injection, schedule: Q01DX001 (ip), vehicle: Klucel (hydroxypropylcellulose) (HPC)

Structure (SMILES): COc1cc(C(NC(=O)N2C(=O)C=CC2=O)NC(=O)N2C(=O)C=CC2=O)ccc1O
- T/C [1]: 106 % of control
- T/C [2]: 100 % of control
- T/C [3]: 100 % of control

Structure (SMILES): CN=C(N)N/N=C(\C)c1ccc2oc3ccc(/C(C)=N/NC(N)=NC)cc3c2c1
- T/C (dose: 25.0 mg/kg/injection, schedule: Q04DX002 (ip), vehicle: saline with Tween-80): 150 % of control
- T/C (dose: 50.0 mg/kg/injection, schedule: Q04DX002 (ip), vehicle: saline with Tween-80): 150 % of control
- T/C [4]: 154 % of control

Structure (SMILES): CC1CC(c2ccccc2)(c2ccccc2)C(=O)C(C)N1C (centres undefined)
- T/C [5]: 107 % of control
- T/C [6]: 105 % of control
- T/C [7]: 97 % of control

Structure (SMILES): CS(=O)(=O)c1nc2ccc(N3C(=O)c4ccccc4C3=O)cc2s1
- T/C (dose: 12.5 mg/kg/injection, schedule: Q01DX009 (ip), vehicle: Klucel (hydroxypropylcellulose) (HPC)): 108 % of control
- T/C (dose: 25.0 mg/kg/injection, schedule: Q01DX009 (ip), vehicle: Klucel (hydroxypropylcellulose) (HPC)): 107 % of control
- T/C (dose: 50.0 mg/kg/injection, schedule: Q01DX009 (ip), vehicle: Klucel (hydroxypropylcellulose) (HPC)): 110 % of control and 89 % of control
- T/C (dose: 200.0 mg/kg/injection, schedule: Q01DX009 (ip), vehicle: Klucel (hydroxypropylcellulose) (HPC)): 105 % of control

Structure (SMILES): Cn1c2c(c3cc(I)ccc31)CCc1cncnc1-2
- T/C (dose: 37.5 mg/kg/injection, schedule: Q01DX001 (ip), vehicle: Klucel (hydroxypropylcellulose) (HPC)): 102 % of control
- T/C (dose: 75.0 mg/kg/injection, schedule: Q01DX001 (ip), vehicle: Klucel (hydroxypropylcellulose) (HPC)): 91 % of control
- T/C (dose: 150.0 mg/kg/injection, schedule: Q01DX001 (ip), vehicle: Klucel (hydroxypropylcellulose) (HPC)): 91 % of control

Structure (SMILES): CCn1cc(C(=O)O)c(=O)c2ccc(C)[n+](C)c21
- T/C [8]: 99 % of control
- T/C (dose: 200.0 mg/kg/injection, schedule: Q04DX002 (ip), vehicle: saline): 100 % of control
- T/C (dose: 400.0 mg/kg/injection, schedule: Q04DX002 (ip), vehicle: saline): 98 % of control

Structure (SMILES): Cn1c(=O)c2nncnc2n(C)c1=O
- T/C [9]: 96 % of control
- T/C [1]: 93 % of control
- T/C [2]: 93 % of control
- T/C [3]: 94 % of control

Structure (SMILES): O=C1C=C[C@@H](COC(c2ccccc2)(c2ccccc2)c2ccccc2)O1
- T/C [4]: 92 % of control
- T/C (dose: 200.0 mg/kg/injection, schedule: Q04DX002 (ip), vehicle: saline with Tween-80): 86 % of control
- T/C (dose: 400.0 mg/kg/injection, schedule: Q04DX002 (ip), vehicle: saline with Tween-80): 89 % of control

Structure (SMILES): CCCCCn1c(C)cc(/C=C\c2ccc3cc(C)ccc3[n+]2C)c1C
- T/C (dose: 0.5 mg/kg/injection, schedule: Q04DX003 (ip), vehicle: saline): 118 % of control
- T/C (dose: 1.0 mg/kg/injection, schedule: Q04DX003 (ip), vehicle: saline): 109 % of control
- T/C (dose: 2.0 mg/kg/injection, schedule: Q04DX003 (ip), vehicle: saline): 109 % of control

Structure (SMILES): O=C(O)C1CCC[N-]1.[Cl][Pt][Cl] (centres undefined)
- T/C (dose: 25.0 mg/kg/injection, schedule: Q04DX003 (ip), vehicle: water): 110 % of control
- T/C (dose: 50.0 mg/kg/injection, schedule: Q04DX003 (ip), vehicle: water): 94 % of control
- T/C (dose: 100.0 mg/kg/injection, schedule: Q04DX003 (ip), vehicle: saline): 157 % of control
- T/C (dose: 150.0 mg/kg/injection, schedule: Q04DX003 (ip), vehicle: saline): 157 % of control

Structure (SMILES): Cc1onc(-c2ccccc2Cl)c1C(=O)SCC(=O)Nc1cc(C(F)(F)F)cc(C(F)(F)F)c1
- T/C [10]: 98 % of control
- T/C [11]: 100 % of control
- T/C [12]: 89 % of control

Structure (SMILES): COc1cc2c(cc1Cc1ccc3c(c1)OCO3)OCO2
- T/C [5]: 94 % of control
- T/C [6]: 92 % of control
- T/C [7]: 89 % of control

Structure (SMILES): Cc1cc(=O)oc2c(C)c3oc4c(c3cc12)CN(C)CC4
- T/C [5]: 100 % of control
- T/C [6]: 117 % of control

Structure (SMILES): C#CCn1cnc2c(N)ncnc21
- T/C [5]: 97 % of control
- T/C [6]: 93 % of control

Structure (SMILES): C[CH2][Sn]1([CH2]C)[O]C2C(O)OC(CO)C(O)C2[O]1 (centres undefined)
- T/C (dose: 1.56 mg/kg/injection, schedule: Q04DX003 (ip), vehicle: saline): 107 % of control and 120 % of control
- T/C (dose: 3.12 mg/kg/injection, schedule: Q04DX003 (ip), vehicle: saline): 107 % of control and 120 % of control
- T/C (dose: 6.25 mg/kg/injection, schedule: Q04DX003 (ip), vehicle: saline): 114 % of control
- T/C (dose: 12.5 mg/kg/injection, schedule: Q04DX003 (ip), vehicle: saline): 116 % of control

Structure (SMILES): C/C(=N\NC(=S)NC12CC3CC(CC(C3)C1)C2)c1ccccn1
- T/C [13]: 113 % of control
- T/C [14]: 104 % of control

Structure (SMILES): CC(=O)N=C(N)N
- T/C (dose: 50.0 mg/kg/injection, schedule: Q01DX009 (ip), vehicle: saline): 103 % of control
- T/C (dose: 100.0 mg/kg/injection, schedule: Q01DX009 (ip), vehicle: saline): 100 % of control
- T/C (dose: 200.0 mg/kg/injection, schedule: Q01DX009 (ip), vehicle: saline): 99 % of control

Structure (SMILES): c1c[se]c(-c2nc3ccccc3[nH]2)c1
- T/C (dose: 12.5 mg/kg/injection, schedule: Q01DX005 (ip), vehicle: Klucel (hydroxypropylcellulose) (HPC)): 99 % of control
- T/C (dose: 25.0 mg/kg/injection, schedule: Q01DX005 (ip), vehicle: Klucel (hydroxypropylcellulose) (HPC)): 107 % of control
- T/C [5]: 110 % of control
- T/C [6]: 107 % of control

Structure (SMILES): COc1cc(C2C(C#N)=CNc3nc(N)nc(N)c32)cc(OC)c1OC (centres undefined)
- T/C [15]: 120 % of control

Structure (SMILES): Cc1nc2ccccc2c(=O)n1/N=C\c1ccc2c(c1)CCC2
- T/C [16]: 97 % of control
- T/C [17]: 104 % of control
- T/C (dose: 240.0 mg/kg/injection, schedule: Q01DX005 (ip), vehicle: Klucel (hydroxypropylcellulose) (HPC)): 95 % of control

Structure (SMILES): Clc1nc(Cl)nc(Nc2ncccn2)n1
- T/C [16]: 100 % of control
- T/C [17]: 102 % of control

Structure (SMILES): COC(=O)CC1C=CC(OC)[C@@]2(C)C(=O)c3ccccc3C(=O)[C@@H]12 (some centres undefined)
- T/C [15]: 93 % of control
- T/C [18]: 106 % of control
- T/C [19]: 101 % of control

Structure (SMILES): CCOC(=O)C12C=CC(=O)NC1(OC)OC(C)C2 (centres undefined)
- T/C [20]: 90 % of control
- T/C [21]: 94 % of control
- T/C [22]: 93 % of control

Structure (SMILES): Cc1csc(Cl)c1NC1=NCCN1
- T/C (dose: 50.0 mg/kg/injection, schedule: Q01DX005 (ip), vehicle: saline): 104 % of control
- T/C (dose: 100.0 mg/kg/injection, schedule: Q01DX005 (ip), vehicle: saline): 107 % of control

Structure (SMILES): Nc1c(C(=O)Nc2ccc3c(c2)C(=O)c2ccccc2C3=O)ccc2c1C(=O)c1ccccc1C2=O
- T/C [5]: 107 % of control
- T/C [6]: 90 % of control
- T/C [7]: 100 % of control

Structure (SMILES): CN1CC2OC2(c2ccccc2)C(c2ccccc2)C1 (centres undefined)
- T/C [1]: 102 % of control
- T/C [2]: 102 % of control

Structure (SMILES): Cc1cc(NC(=O)Nc2ccc(Cl)cc2)no1
- T/C [13]: 100 % of control
- T/C [14]: 95 % of control
- T/C (dose: 400.0 mg/kg/injection, schedule: Q04DX003 (ip), vehicle: saline with Tween-80): 100 % of control

Structure (SMILES): Cc1nc(Cl)c2cnccn12
- T/C (dose: 25.0 mg/kg/injection, schedule: Q04DX003 (ip), vehicle: saline): 100 % of control
- T/C (dose: 50.0 mg/kg/injection, schedule: Q04DX003 (ip), vehicle: saline): 100 % of control

Structure (SMILES): COc1cc(CO)c(Br)c(OC)c1OC
- T/C [20]: 100 % of control
- T/C [21]: 100 % of control
- T/C [22]: 106 % of control

Structure (SMILES): NC1CC2c3ccccc3C1c1ccccc12 (centres undefined)
- T/C (dose: 12.5 mg/kg/injection, schedule: Q01DX005 (ip), vehicle: saline with Tween-80): 100 % of control
- T/C [9]: 100 % of control
- T/C [1]: 100 % of control

Structure (SMILES): CCOC(=O)C(=CNNCCC#N)C(=O)OCC
- T/C [10]: 90 % of control
- T/C [11]: 90 % of control
- T/C [12]: 95 % of control

Structure (SMILES): Cc1ccnc(NS(=O)(=O)c2ccc(NCc3c4ccccc4nc4cc(Cl)ccc34)cc2)n1
- T/C [15]: 99 % of control
- T/C [18]: 90 % of control
- T/C [19]: 86 % of control

Structure (SMILES): CCOP(=O)(O)SP(=O)(O)OCC.CCOP(=O)(O)SP(=O)(O)OCC.[Mn]
- T/C (dose: 50.0 mg/kg/injection, schedule: Q04DX002 (ip), vehicle: saline): 117 % of control
- T/C [8]: 113 % of control and 117 % of control
